According to US20230158108A1 (priority 2020, published 2023):
Entries after “also recorded” stand apart in the source; their conditions may differ. Read-outs that look alike come from different tables or passages of the source.

Legend:
[1] = system: PMNs isolated from healthy adults; assay: NET formation in healthy adult PMNs induced by COVID-19 patient plasma (confocal microscopy, cell-free DNA fluorescence assay); format: cell-based, human; settings: peptide 1 nM, 1-hour preincubation, undiluted COVID-19 plasma 2 hours
healthy neutrophils = format: cell-based, human; settings: healthy neutrophils pretreated
[2] = system: LPS-induced acute lung inflammation; format: in vivo; settings: LPS-induced acute lung inflammation model; nNIF given IP
Description: Thus, nNIF can reduce NETs similar to an FDA approved drug, such as dexamethasone.

experimental sepsis = settings: models of experimental sepsis; cited from earlier work
[3] = system: PMNs isolated from healthy adults; assay: poly (I:C)-induced NETosis in PMNs from healthy adults; format: cell-based, human; settings: poly (I:C) 1 μg/mL, 2 hours
[4] = system: PMNs isolated from COVID-19 patients; assay: poly (I:C)-induced NETosis in PMNs from COVID-19 patients; format: cell-based, human; settings: poly (I:C) 1 μg/mL, 2 hours

Which “NETosis induced in vitro by COVID-19 plasma” value [1] does the source give for “KAVLTIDEKGTEAAGAMFLEAIPMSIPPEVKFNKPFVFLMIEQNTKSPLFMGKVVNPTQK (listed as Homo sapiens) [nNIF]” here?
Its value is “significantly decreases NETosis; also recorded: inhibits NETs induced by COVID-19 plasma”.

What about the “Inhibition of COVID-19 plasma induced NETosis” value (healthy neutrophils; high-inducing pooled plasma (>3-fold induction)) of the same substance?
The value was “clearly observed”.

What about the “Inhibition of COVID-19 plasma induced NETosis” value (healthy neutrophils; medium-inducing pooled plasma (2-3 fold induction)) of the same substance?
The value was “clearly observed”.

What about the “In vivo efficacy: NETs or cells undergoing early NETosis (cytospin)” value [2] of the same substance?
The value was “very good efficacy”.

What about the Disease severity (experimental sepsis) of the same substance?
The Disease severity was “decreased disease severity”.

And the NETosis (experimental sepsis)?
The NETosis was “decrease in NETosis”.

And the Survival (experimental sepsis)?
Its Survival is “improved survival”.

For poly (I:C), which “NETosis induction in vitro” value [3] is on record?
The value was “induces NETosis”.

And the “Increase in NETosis compared to elevated baseline levels” value [4]?
The value was 2 fold.
